Reference: PMC3272775 (Journal of Medicinal Chemistry, 2012)
Entries after “also recorded” stand apart in the source; their conditions may differ. Structures can show the parent of a compound that is named as a salt.

Legend:
[1] = chronic and neuropathic pain; ref [45], [46]; cited from earlier work
[2] = test system: immobility in the mouse forced swim test; assay: Mouse forced swim test; assay type: in vivo
[3] = biological target: CYP2D6 (Homo sapiens, UniProt P10635); assay: Multiple CYP inhibition assay in human liver microsomes, CYP2D6; assay type: in vitro ADME
[4] = test system: about 45 other CNS neurotransmitter receptors and transporters; assay: Broad-range screening; assay type: binding; details: 10 μM; about 45 receptors and transporters
[5] = biological target: human α4β2-nAChR (Homo sapiens, UniProt P17787+P43681); assay: 86Rb+ efflux assay in SH-EP1-hα4β2 cells; assay type: cell-based; details: efficacies similar to that of carbamylcholine
[6] = biological target: CYP3A4 (Homo sapiens, UniProt P08684); assay: Multiple CYP inhibition assay in human liver microsomes, CYP3A4; assay type: in vitro ADME
[7] = biological target: T1, CYP1A2 (Homo sapiens, UniProt P05177); assay: Multiple CYP inhibition assay in human liver microsomes, CYP1A2; assay type: in vitro ADME
T1 sequence (P05177 1-516): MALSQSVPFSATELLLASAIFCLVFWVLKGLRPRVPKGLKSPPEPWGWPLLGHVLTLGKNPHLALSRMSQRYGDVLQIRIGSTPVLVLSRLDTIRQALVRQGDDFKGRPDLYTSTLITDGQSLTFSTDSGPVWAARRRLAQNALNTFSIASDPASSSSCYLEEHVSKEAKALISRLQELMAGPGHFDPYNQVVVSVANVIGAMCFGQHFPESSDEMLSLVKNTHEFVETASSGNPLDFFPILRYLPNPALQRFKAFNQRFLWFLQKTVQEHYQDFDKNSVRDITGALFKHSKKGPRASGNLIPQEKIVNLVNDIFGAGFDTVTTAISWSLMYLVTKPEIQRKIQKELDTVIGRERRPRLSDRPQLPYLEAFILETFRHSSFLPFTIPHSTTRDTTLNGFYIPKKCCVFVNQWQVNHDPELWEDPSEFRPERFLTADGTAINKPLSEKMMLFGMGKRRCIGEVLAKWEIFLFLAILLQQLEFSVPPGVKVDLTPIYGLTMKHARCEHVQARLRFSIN

[8] = biological target: CYP2C19 (Homo sapiens, UniProt P33261); assay: Multiple CYP inhibition assay in human liver microsomes, CYP2C19; assay type: in vitro ADME
[9] = biological target: CYP2C9 (Homo sapiens, UniProt P11712); assay: Multiple CYP inhibition assay in human liver microsomes, CYP2C9; assay type: in vitro ADME
[10] = biological target: α1β1γδ-nAChR (Homo sapiens, UniProt P02708+P07510+Q07001); assay: 86Rb+ efflux assay in TE671/RD cells; assay type: cell-based
[11] = biological target: T2, CYP2B6 (Homo sapiens, UniProt P20813); assay: Multiple CYP inhibition assay in human liver microsomes, CYP2B6; assay type: in vitro ADME
T2 sequence (P20813 1-491): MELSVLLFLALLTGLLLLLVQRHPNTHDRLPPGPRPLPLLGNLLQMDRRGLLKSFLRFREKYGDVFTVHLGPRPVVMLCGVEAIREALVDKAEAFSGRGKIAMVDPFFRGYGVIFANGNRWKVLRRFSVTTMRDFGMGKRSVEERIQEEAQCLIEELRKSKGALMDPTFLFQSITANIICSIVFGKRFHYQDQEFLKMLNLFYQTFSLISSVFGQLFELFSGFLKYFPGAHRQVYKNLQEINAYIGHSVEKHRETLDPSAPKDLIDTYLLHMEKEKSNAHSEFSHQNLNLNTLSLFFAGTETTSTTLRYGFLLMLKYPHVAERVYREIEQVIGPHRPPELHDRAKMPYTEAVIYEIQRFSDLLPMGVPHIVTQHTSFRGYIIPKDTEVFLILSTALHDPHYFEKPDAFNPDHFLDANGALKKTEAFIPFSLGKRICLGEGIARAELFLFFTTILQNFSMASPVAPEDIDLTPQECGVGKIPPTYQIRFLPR

[12] = biological target: α3β4*-nAChR (Homo sapiens, UniProt P30926+P32297); assay: 86Rb+ efflux assay in SH-SY5Y cells; assay type: cell-based; details: efficacies similar to that of carbamylcholine
[13] = test system: α4β2-nAChR from rat cerebral cortical membranes; details: ref [39], [40]; cited from earlier work

Chain of α1β1γδ-nAChR (P02708 21-457): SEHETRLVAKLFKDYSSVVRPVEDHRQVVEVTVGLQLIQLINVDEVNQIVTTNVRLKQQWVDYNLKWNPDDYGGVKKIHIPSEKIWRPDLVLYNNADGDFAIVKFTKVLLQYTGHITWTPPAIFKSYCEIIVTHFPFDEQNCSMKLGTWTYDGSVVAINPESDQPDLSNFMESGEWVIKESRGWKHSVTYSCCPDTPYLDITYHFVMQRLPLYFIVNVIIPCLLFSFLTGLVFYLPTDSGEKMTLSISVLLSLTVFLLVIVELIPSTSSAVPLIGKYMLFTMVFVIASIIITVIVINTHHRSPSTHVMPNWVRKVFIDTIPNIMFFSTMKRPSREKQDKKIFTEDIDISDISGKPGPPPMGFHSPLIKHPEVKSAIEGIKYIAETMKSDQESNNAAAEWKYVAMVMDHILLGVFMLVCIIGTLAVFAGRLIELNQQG
Chain of α1β1γδ-nAChR (P11230 24-501 partner): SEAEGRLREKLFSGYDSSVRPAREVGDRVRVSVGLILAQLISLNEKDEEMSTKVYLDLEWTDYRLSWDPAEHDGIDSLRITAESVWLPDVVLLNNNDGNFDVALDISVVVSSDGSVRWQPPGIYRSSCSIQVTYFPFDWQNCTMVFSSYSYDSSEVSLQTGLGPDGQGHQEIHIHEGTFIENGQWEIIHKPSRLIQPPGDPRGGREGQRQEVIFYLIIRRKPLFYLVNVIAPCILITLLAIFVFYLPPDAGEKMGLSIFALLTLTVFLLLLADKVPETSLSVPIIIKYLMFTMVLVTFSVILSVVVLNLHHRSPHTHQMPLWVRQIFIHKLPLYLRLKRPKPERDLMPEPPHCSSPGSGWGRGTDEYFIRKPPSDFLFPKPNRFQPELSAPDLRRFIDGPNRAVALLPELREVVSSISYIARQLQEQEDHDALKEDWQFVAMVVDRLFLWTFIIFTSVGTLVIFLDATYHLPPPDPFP
Chain of α1β1γδ-nAChR (P07510 23-517): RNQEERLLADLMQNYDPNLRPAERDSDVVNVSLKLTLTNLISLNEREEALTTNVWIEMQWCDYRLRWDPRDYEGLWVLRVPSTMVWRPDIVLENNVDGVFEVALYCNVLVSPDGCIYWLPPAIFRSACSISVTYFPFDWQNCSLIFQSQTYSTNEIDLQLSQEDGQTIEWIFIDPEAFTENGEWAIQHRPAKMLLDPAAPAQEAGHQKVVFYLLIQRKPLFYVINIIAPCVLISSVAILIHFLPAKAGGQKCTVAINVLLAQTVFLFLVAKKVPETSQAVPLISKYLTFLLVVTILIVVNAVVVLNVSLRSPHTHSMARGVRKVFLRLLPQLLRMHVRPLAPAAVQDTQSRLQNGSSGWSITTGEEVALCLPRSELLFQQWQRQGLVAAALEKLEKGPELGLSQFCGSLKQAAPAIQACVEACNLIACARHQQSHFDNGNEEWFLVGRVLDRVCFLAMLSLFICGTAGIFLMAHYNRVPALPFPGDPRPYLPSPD
Chain of α1β1γδ-nAChR (Q07001 22-517): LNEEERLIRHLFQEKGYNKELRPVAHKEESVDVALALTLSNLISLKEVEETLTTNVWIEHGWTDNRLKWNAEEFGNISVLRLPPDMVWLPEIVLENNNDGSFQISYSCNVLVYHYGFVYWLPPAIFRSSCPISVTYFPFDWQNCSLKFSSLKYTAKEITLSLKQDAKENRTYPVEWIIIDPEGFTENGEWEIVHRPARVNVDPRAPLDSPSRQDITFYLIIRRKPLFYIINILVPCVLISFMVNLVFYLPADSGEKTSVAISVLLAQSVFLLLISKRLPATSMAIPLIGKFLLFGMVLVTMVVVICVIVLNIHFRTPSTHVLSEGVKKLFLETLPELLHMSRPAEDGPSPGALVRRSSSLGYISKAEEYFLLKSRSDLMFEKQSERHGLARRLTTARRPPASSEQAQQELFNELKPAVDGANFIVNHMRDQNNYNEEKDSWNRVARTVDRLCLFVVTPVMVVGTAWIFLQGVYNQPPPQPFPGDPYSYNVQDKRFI
Chain of CYP2D6 (P10635 whole entry): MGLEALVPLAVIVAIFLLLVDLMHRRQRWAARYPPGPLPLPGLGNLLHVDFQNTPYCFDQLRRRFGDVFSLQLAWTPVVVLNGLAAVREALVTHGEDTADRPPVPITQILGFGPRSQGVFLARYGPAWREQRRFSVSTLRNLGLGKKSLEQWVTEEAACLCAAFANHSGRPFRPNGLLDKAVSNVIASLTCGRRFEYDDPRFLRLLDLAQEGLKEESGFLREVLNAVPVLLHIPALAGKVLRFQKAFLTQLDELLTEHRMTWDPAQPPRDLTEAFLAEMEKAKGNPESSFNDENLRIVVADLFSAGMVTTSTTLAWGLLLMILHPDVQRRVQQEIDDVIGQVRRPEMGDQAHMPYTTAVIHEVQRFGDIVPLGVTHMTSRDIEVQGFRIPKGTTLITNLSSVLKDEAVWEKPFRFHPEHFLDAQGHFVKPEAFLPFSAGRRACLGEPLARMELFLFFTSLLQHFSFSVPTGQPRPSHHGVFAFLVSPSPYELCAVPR
Chain of CYP2C9 (P11712 whole entry): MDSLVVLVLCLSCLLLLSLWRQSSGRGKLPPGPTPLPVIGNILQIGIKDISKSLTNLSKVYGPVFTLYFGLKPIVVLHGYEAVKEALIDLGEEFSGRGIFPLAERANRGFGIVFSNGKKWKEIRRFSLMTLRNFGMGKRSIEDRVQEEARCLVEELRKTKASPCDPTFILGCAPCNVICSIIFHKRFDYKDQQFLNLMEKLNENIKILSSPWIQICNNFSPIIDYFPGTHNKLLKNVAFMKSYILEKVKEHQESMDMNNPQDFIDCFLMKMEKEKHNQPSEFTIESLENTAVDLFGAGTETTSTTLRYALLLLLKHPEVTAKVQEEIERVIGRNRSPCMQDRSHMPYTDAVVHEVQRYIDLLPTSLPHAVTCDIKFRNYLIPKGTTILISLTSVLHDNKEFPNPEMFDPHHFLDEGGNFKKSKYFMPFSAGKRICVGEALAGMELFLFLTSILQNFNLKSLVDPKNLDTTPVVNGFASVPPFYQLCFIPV
Chain of CYP2C19 (P33261 whole entry): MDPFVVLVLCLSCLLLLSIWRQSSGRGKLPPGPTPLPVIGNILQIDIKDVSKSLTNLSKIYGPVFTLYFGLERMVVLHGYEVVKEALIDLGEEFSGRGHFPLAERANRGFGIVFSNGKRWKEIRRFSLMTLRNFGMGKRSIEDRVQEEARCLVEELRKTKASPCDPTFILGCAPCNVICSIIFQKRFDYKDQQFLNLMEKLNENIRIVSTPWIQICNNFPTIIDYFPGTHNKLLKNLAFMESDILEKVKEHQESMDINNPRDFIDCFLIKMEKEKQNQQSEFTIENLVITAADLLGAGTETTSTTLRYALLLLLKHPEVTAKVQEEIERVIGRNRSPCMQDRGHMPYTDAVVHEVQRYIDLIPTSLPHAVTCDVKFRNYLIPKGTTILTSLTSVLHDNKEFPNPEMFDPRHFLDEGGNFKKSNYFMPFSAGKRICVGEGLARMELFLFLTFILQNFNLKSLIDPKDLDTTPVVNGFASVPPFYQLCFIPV
Chain of α3β4*-nAChR (P32297 32-505): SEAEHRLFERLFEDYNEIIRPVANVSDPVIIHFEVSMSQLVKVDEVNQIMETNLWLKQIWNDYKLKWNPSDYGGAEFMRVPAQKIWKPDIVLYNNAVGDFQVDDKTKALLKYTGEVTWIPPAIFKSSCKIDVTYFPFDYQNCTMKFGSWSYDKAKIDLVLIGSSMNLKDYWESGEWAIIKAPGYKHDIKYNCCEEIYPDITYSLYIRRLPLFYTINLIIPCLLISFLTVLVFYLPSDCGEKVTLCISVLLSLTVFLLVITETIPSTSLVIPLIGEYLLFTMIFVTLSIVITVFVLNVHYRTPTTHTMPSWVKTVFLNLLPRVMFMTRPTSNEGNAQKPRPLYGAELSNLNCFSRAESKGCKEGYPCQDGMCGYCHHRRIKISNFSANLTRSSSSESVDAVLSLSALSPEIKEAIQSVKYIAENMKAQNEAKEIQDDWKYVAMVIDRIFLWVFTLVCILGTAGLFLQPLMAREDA
Chain of α3β4*-nAChR (P30926 22-498): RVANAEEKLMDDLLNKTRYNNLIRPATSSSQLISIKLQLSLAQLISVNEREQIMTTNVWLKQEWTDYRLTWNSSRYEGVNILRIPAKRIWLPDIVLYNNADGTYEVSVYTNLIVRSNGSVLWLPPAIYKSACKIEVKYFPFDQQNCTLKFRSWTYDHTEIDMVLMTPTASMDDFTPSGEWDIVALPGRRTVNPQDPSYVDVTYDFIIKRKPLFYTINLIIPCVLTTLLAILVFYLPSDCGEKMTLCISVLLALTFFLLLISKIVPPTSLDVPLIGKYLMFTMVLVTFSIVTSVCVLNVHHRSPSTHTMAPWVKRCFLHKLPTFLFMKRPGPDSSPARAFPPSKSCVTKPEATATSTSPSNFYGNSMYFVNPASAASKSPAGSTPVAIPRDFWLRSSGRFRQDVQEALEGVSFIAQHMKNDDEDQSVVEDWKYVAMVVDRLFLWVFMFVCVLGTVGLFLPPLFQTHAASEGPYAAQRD
Chain of CYP3A4 (P08684 whole entry): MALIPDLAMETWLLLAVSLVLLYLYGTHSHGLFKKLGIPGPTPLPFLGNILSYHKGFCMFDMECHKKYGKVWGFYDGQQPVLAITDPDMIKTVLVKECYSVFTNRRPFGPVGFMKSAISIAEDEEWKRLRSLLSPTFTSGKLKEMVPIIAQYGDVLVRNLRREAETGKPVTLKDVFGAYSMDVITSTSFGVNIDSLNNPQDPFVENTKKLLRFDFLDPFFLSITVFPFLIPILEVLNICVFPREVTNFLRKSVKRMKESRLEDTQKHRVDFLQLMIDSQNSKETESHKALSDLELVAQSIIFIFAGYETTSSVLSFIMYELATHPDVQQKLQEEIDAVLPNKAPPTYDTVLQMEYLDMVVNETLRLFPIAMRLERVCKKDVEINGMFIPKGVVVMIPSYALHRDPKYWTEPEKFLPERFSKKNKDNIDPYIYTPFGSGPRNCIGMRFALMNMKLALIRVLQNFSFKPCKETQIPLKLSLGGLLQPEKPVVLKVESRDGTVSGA

Clc1ccc(OC[C@H]2CCN2)cn1 [Compound 10]
Potency relative to morphine [1]: 50 times

Cc1cc(OC[C@@H]2CCN2)on1 [Compound 43, 5-[(2(S)-Azetidinyl)methoxy]-3-methylisoxazole]
Immobility in the forced swim test ([2]; 1 mg/kg ip, 30 min before test, 6 min trial, vs vehicle): reduced immobility | Immobility in the forced swim test ([2]; 1 mg/kg orally, 30 min before test, 6 min trial): inactive | Immobility in the forced swim test ([2]; 5 mg/kg ip, 30 min before test, 6 min trial, vs vehicle): reduced immobility | CYP2D6 activity, % of the control [3]: ≥ 70% | Inhibition in the preliminary binding screen [4]: ≤ 50% | Agonist activity at α4β2-nAChRs [5]: full agonist activity | CYP3A4 activity, % of the control [6]: ≥ 70% | CYP1A2 activity, % of the control [7]: ≥ 70% | CYP2C19 activity, % of the control [8]: ≥ 70% | CYP2C9 activity, % of the control [9]: ≥ 70% | Activity at the α1β1γδ-nAChR [10]: little activity; also recorded: inactive | CYP2B6 activity, % of the control [11]: ≥ 70% | Agonist activity at α3β4*-nAChRs [12]: full agonist activity

CN[C@H]1CC[C@@H](c2ccc(Cl)c(Cl)c2)c2ccccc21 [sertraline, reference compound]
Immobility in the forced swim test ([2]; positive control, 10 mg/kg (10 or 20 mg/kg in method), ip or orally): expected decrease in immobility

FCc1cc(OC[C@@H]2CCN2)on1 [Compound 39, 5-[(2(S)-Azetidinyl)methoxy]-3-(fluoromethyl)isoxazole Trifluoroacetate]
Activity at the α1β1γδ-nAChR [10]: little activity; also recorded: inactive

Cc1cc([C@H]2C[C@@H]3CC[C@H]2N3)on1 [Compound 7, epiboxidine]
Fold less potent than compound 4 in the displacement of [3H]nicotine [13]: approximately 10 fold | Fold more potent than compound 6 in the displacement of [3H]nicotine [13]: 17 fold
